Reference: patent publication US20250108036A1, “COMPOSITIONS FOR REMOVING SENESCENT CELLS AND USES THEREOF” (LIFECEUTIX CO., LTD., priority 2021, published 2025)

Assays:
[1] = chlorhexidine gluconate-induced peritoneal fibrosis in mice (Example 6-2); assay type: in vivo, C57BL6J mice; conditions: 0.1% CHG 10 ml/kg i.p. every 2 days for 20 days; LX-112 70 mg/kg i.p. daily from day 9
Protocol: After 8-week-old male C57BL6J mice (purchased from KRIBB Laboratory Animal Resource Center) were adapted to the experimental environment for 1 week, the mice were randomized into an experimental group and a control group. To induce peritoneal fibrosis, 0.1% chlorhexidine gluconate (CHG, purchased from Sigma) was dissolved in 15% ethanol phosphate buffer solution and administered intraperitoneally at a concentration of 10 ml/kg every 2 days for 20 days. From day 9, LX-112 was mixed with 0.5% CMC-Na solution (purchased from Sigma) and administered intraperitoneally at a concentration of 70 mg/kg every day. The control group (−) was administered only the solution in the same volume. On the 20th day, paraffin sections of peritoneal tissue prepared by fixation in 4% paraformaldehyde solution were stained with H/E (Hematoxylin/Eosin) and trichrome, and the thickness of the peritoneal mesothelial cell layer was measured under a light microscope.

Splenocyte = conditions: cited from earlier work
[2] = open field test in obese mice given senescent cells killed by test compounds (Example 16, Table 72); assay type: in vivo, C57BL6J mice; conditions: obese mice administered senescent cells whose death was induced by the test compound
Text: (§1) To obtain preadipocytes, groin fat tissue was collected from an 8-week-old female C57BL6J mouse (purchased from KRIBB Laboratory Animal Resource Center). The fat tissue was cut into small pieces and treated with collagenase to decompose the fat tissue, then centrifuged to collect the stromal vascular fraction (SVF) containing preadipocytes. It was washed with a washing medium (HBSS, purchased from GenDEPOT; 3.5% Albumin Fraction V, purchased from GenDEPOT; 100 U/ml Penicillin & Streptomycin, purchased from Invitrogen), mixed again, and extracted by filtering through a 100 μm nylon mesh. The isolated preadipocytes were cultured in the designated medium (DMEM, purchased from GenDEPOT; 20% FBS, purchased from GenDEPOT; 100 U/ml Penicillin & Streptomycin, purchased from Invitrogen). In the same manner as Example 1, cells were treated with doxorubicin at a concentration of 250 nM for 24 hours and cultured for an additional 21 days to induce cell senescence. Cells were treated with doxorubicin at a concentration of 250 nM for 24 hours and cultured for an additional 21 days to induce cell senescence. By treating the test compounds in the same manner as in Example 13, it was confirmed using an optical microscope that the death of most senescent cells was induced. The killed preadipocytes were washed using PBS (purchased from Welgene) and then mixed with PBS at a concentration of 5×10^5 cells/200 μl. It was administered subcutaneously to 8-week-old female C57BL6J mice (purchased from KRIBB Laboratory Animal Resource Center). At 7 and 10 days after administration of the killed senescent cells, 2 million senescent preadipocytes were mixed in 200 μl of PBS and administered into the abdominal cavity of mice. After administration of killed senescent cells, obesity was induced in mice with a high-fat diet (DIO) for 8 weeks in the same manner as in Example 9-1. Afterwards, the mouse was sacrificed in the same manner as in Example 7-2, total RNA was extracted from the groin fat tissue, and qRT-PCR was performed and analyzed using the synthesized cDNA. […] The mRNA amount of p16, MMP3, and IL6 without administration of senescent cells whose death was induced by the test compounds was calculated as 100%, and the amount of p16, MMP3, and IL6 after administration of the senescent cells whose death was induced by the test compounds was compared with them. Furthermore, an open field test was performed to analyze aging-related frailty in mice using the same method as Example 7-7. […] The amount of activity evaluation without administration of senescent cells whose death was induced by the test compounds was calculated as 100% and compared it with the amount of activity evaluation after administration of senescent cells whose death was induced by the test compounds.

[3] = open field test in naturally aged mice treated with test compounds (Example 15, Table 71); assay type: in vivo, C57BL6J mice; conditions: naturally aged mice treated with test compound
[4] = tested on: foreskin cells in which senescence was induced by doxorubicin; assay: CellTiter-Glo cell viability of doxorubicin-induced senescent foreskin cells (Examples 1-2, 10, 11, 13; Tables 4, 63, 65); assay type: cell-based, human; conditions: doxorubicin-induced senescent foreskin cells, CellTiter-Glo, 0 μM = 100
Protocol: (§2) After 3 days, cell viability was measured using CellTiter-Glo Luminescent Cell Viability Assay (Promega) or light microscopy.

senescent foreskin cells = assay: survival of senescent foreskin cells treated with medium supernatant (secreted fluid) of compound-killed cells (Example 13, Tables 68, 69); assay type: cell-based, human; conditions: culture medium supernatant from dying senescent cells treated with compound at 30 μM, 90 μM or 270 μM; senescent foreskin cells
Protocol: as §2
During this additional culture, by checking with an optical microscope, etc., the medium supernatants containing secreted fluid from normally proliferating and senescent cells in which cell death was induced were obtained. The obtained medium supernatant was replaced with the medium of normally proliferating and senescent cells, respectively, and cell survival rate was measured after 3 days.

p16, MMP3, IL6 [5] = assay: p16, MMP3, IL6 mRNA qRT-PCR in liver of naturally aged mice treated with test compounds (Example 15, Table 71); assay type: in vivo, C57BL6J mice; conditions: liver tissue of naturally aged mice treated with test compound
A549 = assay: CellTiter-Glo cell viability of senescent A549 cancer cells (Example 12, Table 67); assay type: cell-based, human; conditions: doxorubicin-induced senescent A549 cancer cells, CellTiter-Glo
HMGN1 [6] = assay: HMGN1 ELISA in culture medium of foreskin cells (Examples 10, 11; Tables 62, 63, 64); assay type: cell-based, human; conditions: 30 μM test compound, doxorubicin-treated foreskin cells, DMSO = 100
HMGN1 [7] = assay: HMGN1 ELISA in culture medium of A549 cancer cells (Example 12, Table 66); assay type: cell-based, human; conditions: doxorubicin-induced senescent A549 cells, test compound 30 μM, ELISA, DMSO = 100
p16, MMP3, IL6 [8] = assay: p16, MMP3, IL6 mRNA qRT-PCR in groin fat of obese mice given senescent cells killed by test compounds (Example 16, Table 72); assay type: in vivo, C57BL6J mice; conditions: obese mice administered senescent cells whose death was induced by the test compound
Text: as §1, with “compounds. […]” for “compounds.”

| Molecule | Submesothelial Thickness (μm) [1] | Splenocyte proliferation recovery (Splenocyte) | Open Field Test Time in Center (%) [2] | Open Field Test Time in Center (%) [3] | Survival (%) ([4]; 1.1 μM test compound) | Survival (%) ([4]; […] test compound) | Survival (senescent foreskin cells) | IL6 mRNA (%) (p16, MMP3, IL6 [5]) | MMP3 mRNA (%) (p16, MMP3, IL6 [5]) | p16 mRNA (%) (p16, MMP3, IL6 [5]) | Survival (%) (A549; 1.1 μM test compound) | HMGN1 (HMGN1 [6]) | HMGN1 (amount of HMGN1 secreted in the cell culture) (HMGN1 [7]) | IL6 mRNA (%) (p16, MMP3, IL6 [8]) | MMP3 mRNA (%) (p16, MMP3, IL6 [8]) | p16 mRNA (%) (p16, MMP3, IL6 [8]) | Survival (%) ([4]; 10 μM test compound) | Survival (%) (A549; 10 μM test compound) |
| --- | --- | --- | --- | --- | --- | --- | --- | --- | --- | --- | --- | --- | --- | --- | --- | --- | --- | --- |
| N=C(NCCCCCCNC(=N)NC(=N)Nc1ccc(Cl)cc1)NC(=N)Nc1ccc(Cl)cc1.O=C(O)[C@H](O)[C@@H](O)[C@H](O)[C@H](O)CO.O=C(O)[C@H](O)[C@@H](O)[C@H](O)[C@H](O)CO [CHG, chlorhexidine gluconate, reference compound] | 69.1 (±6.4) μm |  |  |  |  |  |  |  |  |  |  |  |  |  |  |  |  |  |
| CC(O)[C@@H]1NC(=O)COCCOCCNC(=O)[C@H](C(C)O)NC(=O)N[C@@H](C(C)O)C(=O)NNC1=O (stereo partly shown) [Example 80] |  | Splenocyte proliferation recovery 91% |  |  |  |  |  |  |  |  |  |  |  |  |  |  |  |  |
| CC(=O)OC[C@H]1O[C@@H]([S-])[C@H](OC(C)=O)[C@@H](OC(C)=O)[C@@H]1OC(C)=O.CCP(CC)CC.[Au+] [LX-201, Auranofin, reference compound] |  |  | 176 (±22.6) % | 226.4 (±27.6) % | 98.2 | 3 | 62.9 | 65.7 (±5.1) % | 77 (±9.6) % | 85 (±8.2) % | 72.5 | 291 | 337 | 76.8 (±6.4) % | 67.1 (±9.2) % | 79.5 (±7.6) % |  |  |
| S=C(N/N=C1\CCCc2cccnc21)N1CCN(c2ccccn2)CC1 [LX-801] |  |  | 216.8 (±12.8) % | 241.8 (±17.9) % | 50.5 | 48.9 | 52.7 | 71.1 (±1.8) % | 76.5 (±4.2) % | 69.4 (±6.9) % | 78.1 | 265 | 329 | 79.4 (±4.6) % | 81.7 (±2.9) % | 79.8 (±3.4) % | 28.2 | 12.7 |
| Decyltriphenylphosphonium [LX-1202] |  |  | 175.9 (±21.5) % | 231 (±23) % | 22.7 | 3.1 | 55.1 | 74.1 (±6.1) % | 40.2 (±22.7) % | 74.2 (±10.4) % | 53.4 | 289 | 301 | 62.8 (±8.9) % | 70.7 (±7.5) % | 67.2 (±12.1) % |  |  |
